Measurements reported in patent US20260250290A1 (BRISTOL-MYERS SQUIBB COMPANY, priority 2023, published 2026).
Structures can show the parent of a compound that is named as a salt. Where two headings read alike, the source gives them in different places.

Target: T1, full length SGK1 (Homo sapiens, UniProt O00141)
T1 construct: 125 μM full length SGK1 (Life Technologies Part #PR7358A); purchased Life Technologies PR7358A
T1 sequence (O00141 1-431): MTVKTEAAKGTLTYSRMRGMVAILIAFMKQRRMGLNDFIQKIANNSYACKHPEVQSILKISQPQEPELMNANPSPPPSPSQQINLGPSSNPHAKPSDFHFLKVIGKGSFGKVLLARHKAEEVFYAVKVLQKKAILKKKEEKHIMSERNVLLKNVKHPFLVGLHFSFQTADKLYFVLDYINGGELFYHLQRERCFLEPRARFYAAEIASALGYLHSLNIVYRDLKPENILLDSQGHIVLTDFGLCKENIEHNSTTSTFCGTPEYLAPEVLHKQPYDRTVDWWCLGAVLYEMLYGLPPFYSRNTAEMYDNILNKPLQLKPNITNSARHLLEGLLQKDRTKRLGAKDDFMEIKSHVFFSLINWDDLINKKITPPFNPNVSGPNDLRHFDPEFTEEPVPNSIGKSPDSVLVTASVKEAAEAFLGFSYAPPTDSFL
Experiment: SGK1 inhibition Assay A (Caliper LabChip electrophoretic separation of fluorescent peptide substrate and phosphorylated product)
Format: biochemical
Conditions: 20 μM ATP, 40 min incubation

Row | Molecule | IC50 (Assay A, read-out: SGK1 IC50) | IC50 (SGK1 IC50, Assay A)
1 | CC(=O)N1CC=C(c2cc(N3CCC[C@@H](NC(=O)c4cccc(S(=O)(=O)F)c4)C3)c3c(N)ncnn23)C1 [Example 869, (R)-3-((1-(7-(1-acetyl-2,5-dihydro-1H-pyrrol-3-yl)-4-aminopyrrolo[2,1-f][1,2,4]triazin-5-yl)piperidin-3-yl)carbamoyl)benzenesulfonyl fluoride] |  | 125 nM
2 | (R)-3-(4-amino-5-(3-(pyrazine-2-carboxamido)piperidin-1-yl)pyrrolo[2,1-f][1,2,4]triazin-7-yl)-2,5-dihydro-1H-pyrrole-1-carboxylate [Example 540] | 216 nM | 
3 | CC(=O)N1CC=C(c2cc(N3CCC[C@@H](NC(=O)c4cc5ccccc5n4C)C3)c3c(N)ncnn23)C1 [Example 456, (R)-N-(1-(7-(1-acetyl-2,5-dihydro-1H-pyrrol-3-yl)-4-aminopyrrolo[2,1-f][1,2,4]triazin-5-yl)piperidin-3-yl)-1-methyl-1H-indole-2-carboxamide] | 41 nM | 
4 | COc1cc(C(=O)N(C)[C@@H]2CCCN(c3cc(-c4ccc(S(C)(=O)=O)cc4)n4ncnc(N)c34)C2)ccn1 [Example 121, (R)—N-(1-(4-amino-7-(4-(methylsulfonyl)phenyl)pyrrolo[2,1-f][1,2,4]triazin-5-yl)piperidin-3-yl)-2-methoxy-N-methylisonicotinamide] | 383 nM | 
5 | COC(=O)N1CC=C(c2cc(N3CCC[C@@H](NC(=O)c4sc(C)nc4OCCN(C)C)C3)c3c(N)ncnn23)C1 [Example 353, Methyl (R)-3-(4-amino-5-(3-(4-(2-(dimethylamino)ethoxy)-2-methylthiazole-5-carboxamido)piperidin-1-yl)pyrrolo[2,1-f][1,2,4]triazin-7-yl)-2,5-dihydro-1H-pyrrole-1-carboxylate] | 16 nM | 
6 | CS(=O)(=O)c1ccc(-c2cc(N3CCC[C@@H](C(=O)Nc4ccccc4)C3)c3c(N)ncnn23)cc1 [Example 105, (R)-1-(4-amino-7-(4-(methylsulfonyl)phenyl)pyrrolo [2,1-f][1,2,4]triazin-5-yl)-N-phenylpiperidine-3-carboxamide] | 335 nM | 
7 | COC(=O)N1CC=C(c2cc(N3CCC[C@@H](NC(=O)c4sc(C(F)F)cc4OCCN4CCOCC4)C3)c3c(N)ncnn23)C1 [Example 336, methyl (R)-3-(4-amino-5-(3-(5-(difluoromethyl)-3-(2-morpholinoethoxy)thiophene-2-carboxamido)piperidin-1-yl)pyrrolo[2,1-f][1,2,4]triazin-7-yl)-2,5-dihydro-1H-pyrrole-1-carboxylate] | 28 nM | 
8 | Methyl (R)-3-(4-amino-5-(3- (5-(difluoromethyl)-3- morpholinothiophene-2- carboxamido)piperidin-1- yl)pyrrolo[2,1-f][1,2,4]triazin- 7-yl)-2,5-dihydro-1H-pyrrole- 1-carboxylate [Example 320] | 25 nM | 
9 | CC(=O)N1CC=C(c2cc(N3CCC[C@@H](NC(=O)c4ccc(CN5CCOCC5)cc4)C3)c3c(N)ncnn23)C1 [Example 463, (R)-N-(1-(7-(1-acetyl-2,5-dihydro-1H-pyrrol-3-yl)-4-aminopyrrolo[2,1-f][1,2,4]triazin-5-yl)piperidin-3-yl)-4-(morpholinomethyl)benzamide] | 400 nM | 
10 | CS(=O)(=O)c1ccc(-c2cc(N3CCC[C@@H](NC(=O)Cc4ccccc4)C3)c3c(N)ncnn23)cc1 [Example 14, (R)-N-(1-(4-amino-7-(4-(methylsulfonyl)phenyl)pyrrolo[2,1-f][1,2,4]triazin-5-yl)piperidin-3-yl)-2-phenylacetamide, TFA] | 941 nM | 
11 | COc1cc(C(=O)N[C@@H]2CCCN(c3cc(C4=CN(S(C)(=O)=O)CC4)n4ncnc(N)c34)C2)ccn1 [Example 115, (R)—N-(1-(4-amino-7-(1-(methylsulfonyl)-4,5-dihydro-1H-pyrrol-3-yl)pyrrolo[2,1-f][1,2,4]triazin-5-yl)piperidin-3-yl)-2-methoxyisonicotinamide] | 103 nM | 
12 | COc1ncc(-c2cc(N3CCC[C@@H](NC(=O)c4cccc(N5CCN(C)CC5)n4)C3)c3c(N)ncnn23)cn1 [Example 788, (R)-N-(1-(4-amino-7-(2-methoxypyrimidin-5-yl)pyrrolo[2,1-f][1,2,4]triazin-5-yl)piperidin-3-yl)-6-(4-methylpiperazin-1-yl)picolinamide] | 434 nM | 
13 | CC1CC1C(=O)N1CC=C(c2cc(N3CCC[C@@H](NC(=O)c4sc(Cl)cc4OCCN4CCOCC4)C3)c3c(N)ncnn23)C1 (stereo partly drawn) [Example 266, N-((3R)-1-(4-amino-7-(1-(2-methylcyclopropane-1-carbonyl)-2,5-dihydro-1H-pyrrol-3-yl)pyrrolo[2,1-f][1,2,4]triazin-5-yl)piperidin-3-yl)-5-chloro-3-(2-morpholinoethoxy)thiopbene-2-carboxamide] | 18 nM | 
14 | CS(=O)(=O)c1ccc(-c2cc(N3CCC[C@@H](NC(=O)c4cccnc4)C3)c3c(N)ncnn23)cc1 [Example 50, (R)-N-(1-(4-amino-7-(4-(methylsulfonyl)phenyl)pyrrolo [2,1-f][1,2,4]triazin-5-yl)piperidin-3-yl)nicotinamide, TFA] | 69 nM | 

The next lines start with results.

Row | IC50 (Assay A, read-out: SGK1 IC50) | Molecule | IC50 (SGK1 IC50, Assay A)
15 | 3 nM | Cc1cc(COCCN2CCOCC2)c(C(=O)N[C@@H]2CCCN(c3cc(-c4ccnc(F)c4)n4ncnc(N)c34)C2)s1 [Example 201, (R)—N-(1-(4-amino-7-(2-fluoropyridin-4-yl)pyrrolo[2,1-f][1,2,4]triazin-5-yl)piperidin-3-yl)-5-methyl-3-((2-morpholinoethoxy)methyl)thiophene-2-carboxamide, 2 TFA] | 
16 | 5 nM | CN(C)CCOc1cc(C(F)F)sc1C(=O)N[C@@H]1CCCN(c2cc(-c3ccnc(C(F)F)c3)n3ncnc(N)c23)C1 [Example 343, (R)—N-(1-(4-amino-7-(2-(difluoromethyl)pyridin-4-yl)pyrrolo[2,1-f][1,2,4]triazin-5-yl)piperidin-3-yl)-5-(difluoromethyl)-3-(2-(dimethylamino)ethoxy)thiophene-2-carboxamide] | 
17 | 6 nM | NC(=O)c1ccc(-c2cc(N3CCC[C@@H](NC(=O)c4sc(Cl)cc4OCCN4CCOCC4)C3)c3c(N)ncnn23)cc1F [Example 163, (R)-N-(1-(4-amino-7-(4-carbamoyl-3-fluorophenyl)pyrrolo [2,1-f][1,2,4]triazin-5-yl)piperidin-3-yl)-5-chloro-3-(2-morpholinoethoxy) thiophene-2-carboxamide, TFA] | 
18 | 7 nM | CCOc1ccsc1C(=O)N[C@@H]1CCCN(c2cc(-c3ccc(S(C)(=O)=O)cc3)n3ncnc(N)c23)C1 [Example 99, (R)-N-(1-(4-amino-7-(4-(methylsulfonyl)phenyl)pyrrolo[2,1-f][1,2,4]triazin-5-yl)piperidin-3-yl)-3-ethoxythiophene-2-carboxamide] | 
19 | 3 nM | CN(C)CCOc1cc(Cl)sc1C(=O)N[C@@H]1CCCN(c2cc(C3=CCN(C(=O)c4ncco4)C3)n3ncnc(N)c23)C1 [Example 908, (R)-N-(1-(4-amino-7-(1-(oxazole-2-carbonyl)-2,5-dihydro-1H-pyrrol-3-yl)pyrrolo[2,1-f][1,2,4]triazin-5-yl)piperidin-3-y1)-5-chloro-3-(2-(dimethylamino)ethoxy)thiophene-2-carboxamide] | 
20 | 3 nM | CC(=O)N1CC=C(c2cc(N3CCC[C@@H](NC(=O)c4cc(C(C)C)[nH]n4)C3)c3c(N)ncnn23)C1 [Example 458, (R)-N-(1-(7-(1-acetyl-2,5-dihydro-1H-pyrrol-3-yl)-4-aminopyrrolo[2,1-f][1,2,4]triazin-5-yl)piperidin-3-yl)-5-isopropyl-1H-pyrazole-3-carboxamide] | 
21 | 15 nM | NCCOc1cc(C(F)F)sc1C(=O)N[C@@H]1CCCN(c2cc(-c3cncnc3)n3ncnc(N)c23)C1 [Example 325, (R)-N-(1-(4-amino-7-(pyrimidin-5-yl)pyrrolo[2,1-f][1,2,4]triazin-5-yl)piperidin-3-yl)-3-(2-aminoethoxy)-5-(difluoromethyl)thiophene-2-carboxamide] | 
22 | 14 nM | COC(=O)N1CC=C(c2cc(N3CCC[C@@H](NC(=O)c4sc(Cl)cc4OCCN4CC5(COC5)C4)C3)c3c(N)ncnn23)C1 [Example 289, Methyl (R)-3-(5-(3-(3-(2-(2-oxa-6-azaspiro[3.3]heptan-6-yl)ethoxy)-5-chlorothiophene-2-carboxamido)piperidin-1-yl)-4-aminopyrrolo[2,1-f][1,2,4]triazin-7-yl)-2,5-dihydro-1H-pyrrole-1-carboxylate] | 
23 | 1 nM | Nc1ncnn2c(-c3ccc(-n4cnnn4)cc3)cc(N3CCC[C@@H](NC(=O)c4ccc(Cl)s4)C3)c12 [Example 249, (R)-N-(1-(7-(4-(1H-tetrazol-1-yl)phenyl)-4-aminopyrrolo[2,1-f][1,2,4]triazin-5-yl)piperidin-3-yl)-5-chlorothiophene-2-carboxamide, TFA] | 
24 | 8 nM | Nc1ncnn2c(C3=CCN(C(=O)c4ccns4)C3)cc(N3CCC[C@@H](NC(=O)c4ccc(Cl)s4)C3)c12 [Example 885, (R)-N-(1-(4-amino-7-(1-(isothiazole-5-carbonyl)-2,5-dihydro-1H-pyrrol-3-yl)pyrrolo[2,1-f][1,2,4]triazin-5-y1)piperidin-3-y1)-5-chlorothiophene-2-carboxamide] | 
25 | 5 nM | N#Cc1cccc(-c2ccc(C(=O)N[C@@H]3CCCN(c4cc(-c5ccnc(C(F)F)c5)n5ncnc(N)c45)C3)s2)c1 [Example 544, (R)-N-(1-(4-amino-7-(2-(difluoromethyl)pyridin-4-yl)pyrrolo[2,1-f][1,2,4]triazin-5-yl)piperidin-3-yl)-5-(3-cyanophenyl)thiophene-2-carboxamide] | 
